Assay results taken from patent US11716992B2, “5A5B6C tricyclic spirolactone derivative, preparation method therefor and use thereof” (NANKAI UNIVERSITY, priority 2017, dated 2023).
“And” between values parts separate entries of the source, which are not always exact repeats. Equal values may be shown once. Read-outs that look alike come from different tables or passages of the source.

What was measured:
Caenorhabditis elegans = test: Insecticidal activity against Caenorhabditis elegans; type: in vivo; conditions: Caenorhabditis elegans, read-out: insecticidal activity, Caenorhabditis elegans
Alternaria solani = test: Fungicidal activity, fungicide growth rate method, AS; type: cell-based; conditions: 50 μg/mL; for inhibition at 50 µg/mL: Alternaria solani, read-out: fungicidal activity (growth inhibition rate), AS
[1] = system: Phytophthora infestans (Mont.) de Bary; test: microbe, parasite or virus in culture; type: cell-based; conditions: for inhibition at 50 µg/mL: Phytophthora infestans, read-out: fungicidal activity (growth inhibition rate), PI, 50 μg/mL
wheat Gibberella zeae = test: microbe, parasite or virus in culture; type: cell-based; conditions: for inhibition at 50 µg/mL: Fusarium graminearum, read-out: fungicidal activity (growth inhibition rate), GZ, 50 μg/mL
Ostrinia furnacalis = test: Insecticidal activity against Ostrinia furnacalis; type: in vivo; conditions: for pest or weed control at 100 µg/mL: Ostrinia furnacalis, read-out: insecticidal activity, Ostrinia furnacalis
Pellicularia sasakii = test: Fungicidal activity, fungicide growth rate method, PS; type: cell-based; conditions: 50 μg/mL; for inhibition at 50 µg/mL: read-out: fungicidal activity (growth inhibition rate), PS
Tobacco Mosaic Virus = test: Anti-TMV inactivation activity on tobacco plants; type: in vivo; parameters: concentration or dose not given beside the values; conditions: compound mixed with TMV solution 30 minutes, lesions checked three days later
Rhizoctonia cerealis = test: Fungicidal activity, fungicide growth rate method, RC; type: cell-based; conditions: 50 μg/mL; for inhibition at 50 µg/mL: Ceratobasidium cereale, read-out: fungicidal activity (growth inhibition rate), RC
Sclerotinia sclerotiorum = test: Fungicidal activity, fungicide growth rate method, SS; type: cell-based; conditions: 50 μg/mL; for inhibition at 50 µg/mL: Sclerotinia sclerotiorum
Cercospora arachidicola = test: Fungicidal activity, fungicide growth rate method, CA; type: cell-based; conditions: 50 μg/mL; for inhibition at 50 µg/mL: Mycosphaerella arachidis, read-out: fungicidal activity (growth inhibition rate), CA
[2] = system: Helicoverpa armigera (Hübner); test: Insecticidal activity against Helicoverpa armigera (Hübner); type: in vivo; conditions: for pest or weed control at 100 µg/mL: Helicoverpa armigera, read-out: insecticidal activity, Helicoverpa armigera (Hübner)
Botrytis cinerea = test: Fungicidal activity, fungicide growth rate method, BC; type: cell-based; conditions: 50 μg/mL; for inhibition at 50 µg/mL: Botrytis cinerea, read-out: fungicidal activity (growth inhibition rate), BC
Physalospora piricola = test: Fungicidal activity, fungicide growth rate method, PP; type: cell-based; conditions: 50 μg/mL; for inhibition at 50 µg/mL: read-out: fungicidal activity (growth inhibition rate), PP
[3] = system: Mythimna separate (Walker); test: Insecticidal activity against Mythimna separate (Walker); type: in vivo; conditions: for pest or weed control at 100 µg/mL: Mythimna, read-out: insecticidal activity, Mythimna separate (Walker)
[4] = system: Apis mellifera ligustica Spin; conditions: for Death number after 24 h / Death number after 48 h: per replicate of 10 bees

SMILES | pest or weed control at 100 µg/mL (Caenorhabditis elegans; 100 μg/mL) [%] | inhibition at 50 µg/mL (Alternaria solani) [%] | inhibition at 50 µg/mL [1] [%] | inhibition at 50 µg/mL (wheat Gibberella zeae) [%] | pest or weed control at 100 µg/mL (Ostrinia furnacalis; 100 μg/mL) [%] | inhibition at 50 µg/mL (Pellicularia sasakii) [%] | TMV inactivation (anti-TMV activity) (Tobacco Mosaic Virus) [%] | inhibition at 50 µg/mL (Rhizoctonia cerealis) [%] | inhibition at 50 µg/mL (Sclerotinia sclerotiorum) [%] | inhibition at 50 µg/mL (Cercospora arachidicola) [%] | pest or weed control at 100 µg/mL ([2]; 100 μg/mL) [%] | inhibition at 50 µg/mL (Botrytis cinerea) [%] | inhibition at 50 µg/mL (Physalospora piricola) [%] | pest or weed control at 100 µg/mL ([3]; 100 μg/mL) [%] | other results
CO[C@@H]1CC(=O)[C@@]2(O)CC=CC[C@H]12 [Zyj06-111-2] | > 30 | 14 | 31 | 47 | 40 | 0 | 24 | 0 | 10 | > 50 | 50 | 39 | – | – | –
C=CC[C@@H]1C[C@]2(O)CC(=O)O[C@@]23C[C@H]2O[C@H]2C[C@H]13 [Zyj07-13] | 20 | 10 | 0 | 14 | – | 6 | 11 | 43 | – | 8 | – | > 50 | 30 | – | –
C=CC[C@@H]1C[C@]2(O)C[C@H](O[C@]34CCO[C@@]35CC=CC[C@H]5[C@H](CC=C)C4)O[C@@]23CC=CC[C@H]13 [Zyj07-30-2] | – | – | – | – | – | – | 16 | – | – | – | – | – | – | – | fungicidal activity (growth inhibition rate), PP (Physalospora piricola): 48%; fungicidal activity (growth inhibition rate), AS (Alternaria solani): 0%; fungicidal activity (growth inhibition rate), PI ([1]; 50 μg/mL): 14%; fungicidal activity (growth inhibition rate), GZ (wheat Gibberella zeae; 50 μg/mL): 27%; insecticidal activity, Ostrinia furnacalis (Ostrinia furnacalis; 100 μg/mL): 0%; fungicidal activity (growth inhibition rate), PS (Pellicularia sasakii): 0%; fungicidal activity (growth inhibition rate), RC (Rhizoctonia cerealis): 0%; fungicidal activity (growth inhibition rate), SS (Sclerotinia sclerotiorum): 95%; fungicidal activity (growth inhibition rate), CA (Cercospora arachidicola): 73%; insecticidal activity, Helicoverpa armigera (Hübner) ([2]; 100 μg/mL): 0%; insecticidal activity, Mythimna separate (Walker) ([3]; 100 μg/mL): 0%; fungicidal activity (growth inhibition rate), BC (Botrytis cinerea): 34%
C=CC[C@@H]1C[C@]2(O)CCO[C@@]23C[C@H](O)CC[C@H]13 [Zyj07-32] | 20 | > 60 | > 60 | 33 | 0 | 16 | 9 | 39 | – | > 50 | 0 | 23 | – | 0 | Death rate after 48 h (%) ([4]; dosage 2.73 μg a.i./bee): 10.0%; Death number after 24 h ([4]; dosage 2.73 μg a.i./bee): 0 and 2; Death number after 48 h ([4]; dosage 2.73 μg a.i./bee): 0 and 2; Death rate after 48 h (%) ([4]; dosage 10.0 μg a.i./bee): 5.0%; Death number after 24 h ([4]; dosage 10.0 μg a.i./bee): 0; Death number after 48 h ([4]; dosage 10.0 μg a.i./bee): 1 and 0
C=CC[C@@H]1C[C@]2(OC(C)=O)C[C@@H](OC(C)=O)O[C@@]23CC=CC[C@H]13 [Zyj07-37-1] | 20 | 14 | 15 | 0 | 10 | 0 | 16 | 7 | > 50 | 14 | 15 | – | > 50 | 20 | Death rate after 48 h (%) ([4]; dosage 7.55 μg a.i./bee): 0%; Death number after 24 h ([4]; dosage 7.55 μg a.i./bee): 0; Death number after 48 h ([4]; dosage 7.55 μg a.i./bee): 0; Death rate after 48 h (%) ([4]; dosage 15.3 μg a.i./bee): 0%; Death number after 24 h ([4]; dosage 15.3 μg a.i./bee): 0; Death number after 48 h ([4]; dosage 15.3 μg a.i./bee): 0
CC(=O)O[C@@]12C[C@H]3CC=CC[C@@]1(O3)[C@@H]1CC=CC[C@@H]1C2 [Zyj07-41-2] | 12 | 14 | 25 | 20 | 0 | 41 | 18 | – | – | > 50 | 15 | 34 | > 50 | 10 | Death rate after 48 h (%) ([4]; dosage 8.70 μg a.i./bee): 0%; Death number after 24 h ([4]; dosage 8.70 μg a.i./bee): 0; Death number after 48 h ([4]; dosage 8.70 μg a.i./bee): 0; Death rate after 48 h (%) ([4]; dosage 13.5 μg a.i./bee): 0%; Death number after 24 h ([4]; dosage 13.5 μg a.i./bee): 0; Death number after 48 h ([4]; dosage 13.5 μg a.i./bee): 0
C=CC[C@@H]1C[C@]2(O[Si](C)(C)CC=C)CCO[C@@]23CC[C@H](O[Si](C)(C)CC=C)C[C@@H]13 [Zyj07-48] | – | 0 | 19 | 7 | – | 14 | – | 0 | > 50 | 35 | – | > 50 | 13 | – | pest or weed control at 100 µg/mL (Caenorhabditis elegans): 25%; pest or weed control at 100 µg/mL (Ostrinia furnacalis): 0%; pest or weed control at 100 µg/mL [2]: 0%; pest or weed control at 100 µg/mL [3]: 0%; Death rate after 48 h (%) ([4]; dosage 9.89 μg a.i./bee): 5.0%; Death number after 24 h ([4]; dosage 9.89 μg a.i./bee): 0; Death number after 48 h ([4]; dosage 9.89 μg a.i./bee): 0 and 1; Death rate after 48 h (%) ([4]; dosage 19.8 μg a.i./bee): 0%; Death number after 24 h ([4]; dosage 19.8 μg a.i./bee): 0; Death number after 48 h ([4]; dosage 19.8 μg a.i./bee): 0
C=CC[Si](C)(C)O[C@@]12CCO[C@@]13CC[C@H]1C[C@H]3[C@H](CC=CC[Si](C)(C)O1)C2 [Zyj07-49] | – | – | 16 | – | – | 45 | 28 | – | > 50 | – | – | 34 | – | – | pest or weed control at 100 µg/mL (Caenorhabditis elegans): 15%; pest or weed control at 100 µg/mL (Ostrinia furnacalis): 0%; pest or weed control at 100 µg/mL [2]: 0%; pest or weed control at 100 µg/mL [3]: 20%; Death rate after 48 h (%) ([4]; dosage 6.06 μg a.i./bee): 0%; Death number after 24 h ([4]; dosage 6.06 μg a.i./bee): 0; Death number after 48 h ([4]; dosage 6.06 μg a.i./bee): 0; Death rate after 48 h (%) ([4]; dosage 19.8 μg a.i./bee): 0%; Death number after 24 h ([4]; dosage 19.8 μg a.i./bee): 0; Death number after 48 h ([4]; dosage 19.8 μg a.i./bee): 0
C=CC[C@@H]1C[C@@]2(OC(C)=O)C[C@@H](CC=C)[C@H]3C[C@H]4O[C@H]4C[C@@]32O1 [Zyj07-67-1] | – | 0 | 32 | 23 | 5 | 18 | 7 | 0 | – | 14 | 10 | > 50 | 31 | 20 | –
C=CC[C@@H]1C[C@@]2(O)C[C@@H](CC=C)[C@H]3C[C@@H](O)CC[C@@]32O1 [Zyj07-68] | 13 | 3 | 13 | 0 | 0 | 9 | – | 21 | > 50 | 19 | 0 | 36 | 2 | 0 | Death rate after 48 h (%) ([4]; dosage 9.97 μg a.i./bee): 10.0%; Death number after 24 h ([4]; dosage 9.97 μg a.i./bee): 0; Death number after 48 h ([4]; dosage 9.97 μg a.i./bee): 1; Death rate after 48 h (%) ([4]; dosage 16.1 μg a.i./bee): 0%; Death number after 24 h ([4]; dosage 16.1 μg a.i./bee): 0; Death number after 48 h ([4]; dosage 16.1 μg a.i./bee): 0
O=C1C[C@@]2(O)CC[C@H]3CC=CC[C@@]32O1 [Zyj07-96] | – | > 60 | 24 | > 50 | 10 | > 60 | 23 | – | > 50 | – | 15 | 25 | – | > 30 | Death rate after 48 h (%) ([4]; dosage 9.54 μg a.i./bee): 0%; Death number after 24 h ([4]; dosage 9.54 μg a.i./bee): 0; Death number after 48 h ([4]; dosage 9.54 μg a.i./bee): 0; Death rate after 48 h (%) ([4]; dosage 15.5 μg a.i./bee): 0%; Death number after 24 h ([4]; dosage 15.5 μg a.i./bee): 0; Death number after 48 h ([4]; dosage 15.5 μg a.i./bee): 0
